The text below walks through data of US7622494B2, “Chemical compounds” (SmithKline Beecham Corporation, priority 2003, dated 2009).

Structures can show the parent of a compound that is named as a salt.

For the first assay, the system named is episomal HPV-16 DNA in W12-20850 cells. As to the kind of experiment: W-12 cellular assay (hybrid capture quantification of episomal HPV-16 DNA). Type of assay: cell-based, HPV16. To be noted: Human papillomavirus 16, 96 h; W12-20850 cells, four days incubation, episomal HPV-16 DNA by hybrid capture, inhibition relative to untreated control cells; read-out: W-12. As to the method: Compounds of the current invention are believed useful in the treatment and/or prophylaxis of conditions and diseases associated with HPV infection. Activity mediated through HPV was determined using the following W-12 cellular assay.
The W12 cell line used contains HPV16 DNA and was derived from a low-grade cervical dysplasia tissue by Margaret Stanley and subsequently clonally selected by Paul Lambert (University of Wisconsin). One of these clones, W12-20850, contains 1000 copies of episomal HPV16 DNA and was used in the cell-based assay. W12-20850 cells were routinely cultured with a gamma-irradiated (6000 rads) feeder layer of 3T3 cells. Assays, however, were run in the absence of a 3T3 feeder layer. W12-20850 and 3T3 cells were routinely split when they were sub-confluent. W12-20850 were grown in W12 Medium which is constituted of 25% DMEM (Gibco BRL, Cat # 12430-047), 75% F12 Media (Gibco BRL, Cat # 11765-021) and 2.5% FBS. The additives include […] Adenine (Sigma, Cat # A-9795), […] Hydrocortisone (Calbiochem, Cat # 386698); 5.0 mg/ml Bovine Insulin (Sigma, Cat # I-1882), 8.4 ng/ml cholera toxin (Fluka, Cat # 26694) and 10 ng/ml EGF (Invitrogen, Cat # 13247-051). 3T3 cells were grown in DMEM containing 10% FBS. Cell lines were incubated at 37° C., in the presence of 5% CO2.
For the assay, W12-20850 cells were seeded into a 96 well plate-containing compound. Plates were incubated at 37° C. in the presence of 5% CO2, for four days. On the fourth day, cells were lysed and the amount of episomal. HPV-16 DNA was quantified using a non-radioactive hybrid capture technique with HPV-16 specific capture and detection probes. The percent inhibition relative to untreated control cells' was then determined.
The hybrid capture assay is run in a 96 well plate format. Hybridization plates (Nunc Maxisorb Cat # 450320) were coated with a mixture of capture probe and ReactiBind solution for at least 4 hours and then washed with 0.2×SSC, 0.05% Tween20 (SSCT) prior to blocking with […] of 0.2 N NaOH, 1% Igepal, 10 mg/ml hsDNA for 6-8 hours. The hybridization was carried out by mixing 27 μl of lysed cells with 45 μl of denatured detection probe in 6M guanidine isothiocyanate. To prevent evaporation, 50 μl of mineral oil was added to each well. The plate was then heated to 90° C. for 6.5 minutes and the hybridization continued at 42° C. overnight. Assay plates were washed 6 times with SSC/T. Anti-digoxigenin HRP-conjugated Ab (Boehringer Mannheim 1207733, 1:5000) was incubated in the wells for 30 min at room temperature and washed with PBS/0.05% Tween-20. SuperSignal LBA substrate (Pierce Cat # 37070) was added, and chemiluminescence was measured using Wallac 1420 Victor plate reader.
As for `c1ccc2c(c1)CC(NC1CCCc3c1[nH]c1ccccc31)C2` (centres unmarked) [Example 20, N-(2.3-Dihydro-1H-inden-2-yl)-2,3,4,9-tetrahydro-1H-carbazol-1-amine hydrochloride salt], the IC50 was determined as 3.3 µM.

Regarding `C[C@@H](CCc1ccccc1)NC1CCCc2c1[nH]c1ccccc21` (stereo partly drawn) [Example 24, N-[(1S)-1-Methyl-3-Phenylpropyl]-2,3,4,9-tetrahydro-1H-carbazol-1-aminehydrochloride salt], the IC50 worked out at 5.3 µM.

As to `c1ccc2c3c([nH]c2c1)C(NCc1ccc2c(c1)OCO2)CCC3` (centres unmarked) [Example 25, N-(1.3-Benzodioxol-5-ylmethyl)-2,3,4,9-tetrahydro-1H-carbazol-1-amine hydrochloride salt], the IC50 turned out to be 1.5 µM.

As for `Brc1ccc2[nH]c3c(c2c1)CCC[C@@H]3NC1Cc2ccccc2C1` [Example 28, (1S)-6-Bromo-N-(2.3-dihydro-1H-inden-2-yl)-2,3,4,9-tetrahydro-1H-carbazol-1-amine hydrochloride salt], the IC50 amounted to 3.7 µM.

Regarding `Cc1ccc2[nH]c3c(c2c1)CCCC3NC1Cc2ccccc2C1` (centres unmarked) [Example 41, N-(2.3-Dihydro-1H-inden-2-yl)-6-methyl-2,3,4,9-tetrahydro-1H-carbazol-1-amine hydrochloride-salt], the IC50 stood at 0.4 µM.

The assay is the same for the next values; noted with them: Human papillomavirus 16, W12-20850, 96 h, read-out: W-12.
Regarding `c1ccc(CNC2CCCc3c2[nH]c2ccccc32)cc1` (centres unmarked) [Example 15, N-Benzyl-2,3,4,9-tetrahydrocarbazole-1-amine hydrochloride salt], the IC50 was 6.6 µM.

On to `COc1ccc(CNC2CCCc3c2[nH]c2ccccc32)cc1` (centres unmarked) [Example 16, N-(4-Methoxybenzyl)-2,3,4,9-tetrahydro-1H-carbazol-1-amine hydrochloride salt], for which the IC50 is 1.5 µM.

For the molecule `c1ccc(CCNC2CCCc3c2[nH]c2ccccc32)cc1` (centres unmarked) [Example 17, N-(2-Phenylethyl)-2,3,4,9-tetrahydro-1H-carbazol-1-amine hydrochloride salt], the IC50 turned out to be 7.4 µM.

For the molecule `C[C@@H](NC1CCCc2c1[nH]c1ccccc21)c1ccccc1` (stereo partly drawn) [Example 18, N-[(1R)-1-Phenylethyl]-2,3,4,9-tetrahydro-1H-carbazol-1-amine hydrochloride salt], the IC50 came out at 12.3 µM.

For `c1ccc2c3c([nH]c2c1)C(NC1CCCCC1)CCC3` (centres unmarked) [Example 19, N-Cyclohexyl-2,3,4,9-tetrahydro-1H-carbazol-1-amine hydrochloride salt], the IC50 was found to be 14.5 µM.

`CCCNC1CCCc2c1[nH]c1ccccc21` (centres unmarked) [Example 21, N-Propyl-2,3,4,9-tetrahydro-1H-carbazol-1-amine hydrochloride salt]: the IC50 came out at 40 µM.

As for `COCCNC1CCCc2c1[nH]c1ccccc21` (centres unmarked) [Example 22, N-(2-Methoxyethyl)-2,3,4,9-tetrahydro-1H-carbazol-1-amine hydrochloride salt], the IC50 is 47 µM.

Turning to `OC[C@H](NC1CCCc2c1[nH]c1ccccc21)c1ccccc1` (stereo partly drawn) [Example 23, (2R)-2-Phenyl-2-(2,3,4,9-tetrahydro-1H-carbazol-1-ylamino)ethanol hydrochloride salt], the IC50 was determined as 30 µM.

Take `Brc1ccc2[nH]c3c(c2c1)CCCC3NCCc1ccccc1` (centres unmarked) [Example 26, 6-Bromo-N-(2-phenylethyl)-2,3,4,9-tetrahydro-1H-carbazol-1-amine hydrochloride salt]: the IC50 came to 0.41 µM.

Turning to `Brc1ccc2[nH]c3c(c2c1)CCC[C@H]3NC1Cc2ccccc2C1` [Example 27, (1R)-6-Bromo-N-(2,3-dihydro-1H-inden-2-yl)-2,3,4,9-tetrahydro-1H-carbazol-1-amine hydrochloride salt], the IC50 came to 0.057 µM.

With `Brc1ccc2[nH]c3c(c2c1)CCCC3NCc1ccccc1` (centres unmarked) [Example 29, N-Benzyl-6-bromo-2,3,4,9-tetrahydro-1H-carbazol-1-amine hydrochloride salt], the IC50 came to 0.115 µM.

For `C[C@@H](NC1CCCc2c1[nH]c1ccc(Br)cc21)c1ccccc1` (stereo partly drawn) [Example 30, 6-Bromo-N-[(1R)-1-phenylethyl]-2,3,4,9-tetrahydro-1H-carbazol-1-amine hydrochloride salt], the IC50 was less than 0.2 µM.

As for `C[C@@H](N[C@@H]1CCCc2c1[nH]c1ccc(Br)cc21)c1ccccc1` [Example 31, (1R)-6-bromo-N-[(1R)-1-phenylethyl]-2,3,4,9-tetrahydro-1 H-carbazol-1-amine hydrochloride salt], the IC50 came to 0.03 µM.

As for `C[C@@H](N[C@H]1CCCc2c1[nH]c1ccc(Br)cc21)c1ccccc1` [Example 32, (1S)-6-Bromo-N-[(1R)-1-Phenylethyl]-2,3,4,9-tetrahydro-1H-carbazol-1-amine hydrochloride salt], the IC50 is 0.525 µM.

As for `CC(C)(NC1CCCc2c1[nH]c1ccc(Br)cc21)c1ccccc1` (centres unmarked) [Example 33, 6-Bromo-N-(1-methyl-1-phenylethyl)-2,3,4,9-tetrahydro-1H-carbazol-1-amine hydrochloride salt], the IC50 is 0.75 µM.

Regarding `C[C@H](NC1CCCc2c1[nH]c1ccc(Br)cc21)c1ccccc1` (stereo partly drawn) [Example 34, 6-Bromo-N-[(1S)-1-phenylethyl]-2,3,4,9-tetrahydro-1H-carbazol-1-amine hydrochloride salt], the IC50 was 0.29 µM.

Take `C[C@H](N[C@H]1CCCc2c1[nH]c1ccc(Br)cc21)c1ccccc1` [Example 35, (1S)-6-Bromo-N-[(1S)-1-phenylethyl]-2,3,4,9-tetrahydro-1H-carbazol-1-amine hydrochloride salt]: the IC50 was found to be 3 µM.

With `C[C@H](N[C@@H]1CCCc2c1[nH]c1ccc(Br)cc21)c1ccccc1` [Example 36, (1R)-6-Bromo-N-[(1S)-1-phenylethyl]-2,3,4,9-tetrahydro-1H-carbazol-1-amine hydrochloride salt], the IC50 was found to be 0.02 µM.

Turning to `CN(CCc1ccccc1)C1CCCc2c1[nH]c1ccc(Br)cc21` (centres unmarked) [Example 37, 6-Bromo-N-methyl-N-(2-phenylethyl)-2,3,4,9-tetrahydro-1H-carbazol-1-amine hydrochloride salt], the IC50 is 3 µM.

`Cn1c2c(c3cc(Br)ccc31)CCCC2NCCc1ccccc1` (centres unmarked) [Example 38, 6-Bromo-9-methyl-N-(2-phenylethyl)-2,3,4,9-tetrahydro-1H-carbazol-1-amine hydrochloride salt]: the IC50 turned out to be 27 µM.

Take `C[C@@H](CNC1CCCc2c1[nH]c1ccc(Br)cc21)c1ccccc1` (stereo partly drawn) [Example 39, 6-Bromo-N-[(2R)-2-phenylpropyl]-2,3,4,9-tetrahydro-1H-carbazol-1-amine hydrochloride salt]: the IC50 was found to be 0.16 µM.

Take `Cc1ccc2[nH]c3c(c2c1)CCCC3NCCc1ccccc1` (centres unmarked) [Example 40, 6-Methyl-N-(2-phenylethyl)-2,3,4,9-tetrahydro-1H-carbazol-1-amine hydrochloride salt]: the IC50 turned out to be 2.7 µM.

As for `Cc1ccc2[nH]c3c(c2c1)CCCC3N[C@H](C)c1ccccc1` (stereo partly drawn) [Example 42, 6-Methyl-N-[(1R)-1-phenylethyl]-2,3,4,9-tetrahydro-1H-carbazol-1-amine hydrochloride salt], the IC50 was 0.54 µM.

Consider `Cc1ccc2[nH]c3c(c2c1)CCC[C@H]3N[C@H](C)c1ccccc1` [Example 43, hydrochloride salt], for which the IC50 came to 0.24 µM.

For the molecule `Cc1ccc2[nH]c3c(c2c1)CCC[C@@H]3N[C@H](C)c1ccccc1` [Example 44, (1S)-6-Methyl-N-[(1R)-1-phenylethyl]-2,3,4,9-tetrahydro-1H-carbazol-1-amine hydrochloride salt], the IC50 turned out to be 8.4 µM.

Consider `Cc1ccc2[nH]c3c(c2c1)CCCC3N[C@@H](C)c1ccccc1` (stereo partly drawn) [Example 45, 6-Methyl-N-[(1S)-1-phenylethyl]-2,3,4,9-tetrahydro-1H-carbazol-1-amine hydrochloride salt], for which the IC50 was found to be 7 µM.

As for `Cc1ccc2[nH]c3c(c2c1)CCC[C@@H]3N[C@@H](C)c1ccccc1` [Example 46, (1S)-6-Methyl-N-[(1S)-1-phenylethyl]-2,3,4,9-tetrahydro-1H-carbazol-1-amine hydrochloride salt], the IC50 stood at 8.6 µM.
